Results on two molecules are retold here after patent US6187907A, “Triple helix coil template having a biologically active ligand” (priority 1998, dated 2001).

Bridge positions count the residues as written; N and C are the ends. Square brackets hold non-standard residues; d marks the D form. Peptide text beside a SMILES is read from it. I, II: the chains in the order shown. * marks the point of attachment. Succinyl(2R-iBu,4-NHOH) = CC(C)C[C@H](CC(=O)NO)C(=O)*; Hyp = O=C(O)[C@@H]1C[C@@H](O)CN1; Ahx = NCCCCCC(=O)O

The target in the assay is Human gelatinase. Briefly: Inhibition of trypsin-activated human gelatinase, fluorogenic Mca peptide substrate. To be noted: substrate 10 μM, 37° C., 60 minutes, 5 minutes preincubation; read-out: IC50 against activated gelatinase. Type of assay: biochemical. As for the experimental part:
Human gelatinase was activated with trypsin as follows. A reaction mixture was prepared in Tris buffer (pH 7.5) containing 20 mM Tris-HCl, 0.15 N NaCl, 4 μg/ml trypsin, 3 nM gelatinase and 5 mM CaCl2. The reaction mixture was incubated at 37° C. for 60 minutes and then soybean trypsin inhibitor was added at 44 μg/ml to quench the reaction.
The substrate was added at final 10 μM and was then further incubated at 37° C. for 60 minutes. The reaction was terminated by the addition of 750 μl of 0.1 N sodium acetate buffer (pH 4.0). The hydrolysis of the substrate was assessed by fluorescence, excitation at 328 nm and emission of 393 nm, with a Perkin-Elmer Fluorimeter LS-50B.

The term IC50 denotes the point on the concentration scale where inhibition reaches its midpoint. Regarding `CC(C)C[C@H](CC(=O)NO)C(=O)N[C@@H](Cc1c[nH]c2ccccc12)C(=O)NCC(=O)N1CCC[C@H]1C(=O)N1C[C@H](O)C[C@H]1C(=O)NCC(=O)N1CCC[C@H]1C(=O)N1CCC[C@H]1C(=O)N[C@@H](CO)C(=O)NCC(=O)NCC(=O)NCCCCCC(=O)NCCCC[C@H](NC(=O)CCCCCNC(=O)CNC(=O)CNC(=O)[C@H](CO)NC(=O)[C@@H]1CCCN1C(=O)[C@@H]1CCCN1C(=O)CNC(=O)[C@@H]1C[C@@H](O)CN1C(=O)[C@@H]1CCCN1C(=O)CNC(=O)[C@H](Cc1c[nH]c2ccccc12)NC(=O)[C@@H](CC(=O)NO)CC(C)C)C(=O)N[C@@H](CCCCNC(=O)CCCCCNC(=O)CNC(=O)CNC(=O)[C@H](CO)NC(=O)[C@@H]1CCCN1C(=O)[C@@H]1CCCN1C(=O)CNC(=O)[C@@H]1C[C@@H](O)CN1C(=O)[C@@H]1CCCN1C(=O)CNC(=O)[C@H](Cc1c[nH]c2ccccc12)NC(=O)[C@@H](CC(=O)NO)CC(C)C)C(=O)NCC(N)=O` [NHT1-L] (I: {Succinyl(2R-iBu,4-NHOH)}-WGP[Hyp]GPPSGG[Ahx]KKG-NH2 / II: {Succinyl(2R-iBu,4-NHOH)}-WGP[Hyp]GPPSGG[Ahx] / III: {Succinyl(2R-iBu,4-NHOH)}-WGP[Hyp]GPPSGG[Ahx]; amide I:12-II:C, I:13-III:C), the IC50 was 0.0023 µM.
As for “I: {Succinyl(2R-iBu,4-NHOH)}-WGP[Hyp]GP[Hyp]GPPSGG[Ahx]KKG-NH2 / II: {Succinyl(2R-iBu,4-NHOH)}-WGP[Hyp]GP[Hyp]GPPSGG[Ahx] / III: {Succinyl(2R-iBu,4-NHOH)}-WGP[Hyp]GP[Hyp]GPPSGG[Ahx] (amide I:15-II:C, I:16-III:C) [NHT2-L]”, the figure is 0.024 µM.
